The source of these data is ChEMBL document CHEMBL4680362, “Androgen Receptor Protein Degradation in the Treatment of Castration-Resistant Prostate Cancer” (ACS Med Chem Lett, 2021).

The target of experiment [1] is T1, von Hippel-Lindau disease tumor suppressor/Androgen receptor (Homo sapiens) (UniProt P10275+P40337). Briefly: Protac activity at VHL/AR in human LNCaP cells assessed as degradation of AR at 0.1 uM measured after 6 hrs by Western blot analysis relative to control. It is filed as cell-based. (In general: Immunoblotting shows a protein as a band on a membrane.)
For experiment [2], the target named is T1, von Hippel-Lindau disease tumor suppressor/Androgen receptor (Homo sapiens). Briefly: Protac activity at VHL/AR in human LNCaP cells assessed as degradation of AR at 0.01 uM measured after 6 hrs by Western blot analysis relative to control. It is filed as cell-based.

T1 sequence (P10275 whole entry, looked up): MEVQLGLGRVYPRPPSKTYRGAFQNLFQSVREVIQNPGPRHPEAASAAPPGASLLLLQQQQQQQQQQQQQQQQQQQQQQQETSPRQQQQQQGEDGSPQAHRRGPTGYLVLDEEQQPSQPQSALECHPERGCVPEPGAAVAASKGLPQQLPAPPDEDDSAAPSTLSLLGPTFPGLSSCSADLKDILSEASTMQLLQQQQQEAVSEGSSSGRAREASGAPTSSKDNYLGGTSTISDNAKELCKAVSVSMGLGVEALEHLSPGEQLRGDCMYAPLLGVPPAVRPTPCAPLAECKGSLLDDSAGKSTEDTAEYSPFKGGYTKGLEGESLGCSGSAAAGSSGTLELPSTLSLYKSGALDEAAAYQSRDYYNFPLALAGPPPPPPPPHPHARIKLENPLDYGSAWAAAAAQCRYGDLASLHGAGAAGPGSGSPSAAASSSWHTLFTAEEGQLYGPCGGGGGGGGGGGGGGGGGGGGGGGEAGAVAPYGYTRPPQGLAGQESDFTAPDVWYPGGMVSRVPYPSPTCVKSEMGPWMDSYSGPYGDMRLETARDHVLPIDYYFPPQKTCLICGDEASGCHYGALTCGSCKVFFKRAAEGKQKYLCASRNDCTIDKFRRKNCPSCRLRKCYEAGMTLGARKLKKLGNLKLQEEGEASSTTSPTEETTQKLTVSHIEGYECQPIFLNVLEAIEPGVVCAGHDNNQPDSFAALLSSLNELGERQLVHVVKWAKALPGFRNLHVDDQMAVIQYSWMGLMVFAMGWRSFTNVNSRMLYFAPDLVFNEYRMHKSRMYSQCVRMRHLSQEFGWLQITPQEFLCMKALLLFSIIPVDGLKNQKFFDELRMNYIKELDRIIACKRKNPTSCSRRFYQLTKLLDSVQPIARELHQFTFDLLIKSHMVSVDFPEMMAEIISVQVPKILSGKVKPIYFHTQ
T1 sequence (P40337 whole entry, looked up): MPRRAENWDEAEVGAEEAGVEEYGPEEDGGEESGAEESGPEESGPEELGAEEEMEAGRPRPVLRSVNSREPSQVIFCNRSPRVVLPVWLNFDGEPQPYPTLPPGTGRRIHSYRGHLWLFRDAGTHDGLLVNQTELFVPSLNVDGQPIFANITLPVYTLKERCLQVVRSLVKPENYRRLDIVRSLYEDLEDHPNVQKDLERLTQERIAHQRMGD

For `CC(=O)N[C@H](C(=O)N1C[C@H](O)C[C@H]1C(=O)N[C@@H](CC(=O)N1CCC(N2CCC(C#Cc3ccc(C(=O)N[C@H]4C(C)(C)[C@H](Oc5ccc(C#N)c(Cl)c5)C4(C)C)cc3)CC2)CC1)c1ccc(-c2scnc2C)cc1)C(C)(C)C`, the Activity in experiment [1] is 77%; in experiment [2], 39%.
Take `Cc1cc([C@H](C(=O)N2C[C@H](O)C[C@H]2C(=O)N[C@@H](CC(=O)N2CCC(N3CCC(C#Cc4ccc(Cc5c(C)nn(-c6ccc(C#N)c(Cl)c6)c5C)cc4)CC3)CC2)c2ccc(-c3scnc3C)cc2)C(C)C)on1`: the Activity in experiment [1] came to 65%.
Turning to `Cc1cc([C@H](C(=O)N2C[C@H](O)C[C@H]2C(=O)N[C@@H](CC(=O)NN2CCC(N3CCC(C#Cc4ccc(N5C(=S)N(c6cnc(C#N)c(C(F)(F)F)c6)C(=O)C56CCC6)cc4)CC3)CC2)c2ccc(-c3scnc3C)cc2)C(C)C)on1`, the Activity was determined as 80% in experiment [1] and 38% in experiment [2].
As for `CC1(C)[C@H](NC(=O)c2ccc(C#CC3CCN(C4CCN(c5cccc6c5C(=O)N(C5CCC(=O)NC5=O)C6=O)CC4)CC3)cc2)C(C)(C)[C@H]1Oc1ccc(C#N)c(Cl)c1` (some centres undefined), in experiment [1], the Activity was determined as 2%.
In the case of `Cc1cc([C@H](C(=O)N2C[C@H](O)C[C@H]2C(=O)N[C@@H](CC(=O)NN2CCC(N3CCC(C#Cc4ccc(N5C(=S)N(c6ccc(C#N)c(C(F)(F)F)c6)C(=O)C5(C)C)cc4)CC3)CC2)c2ccc(-c3scnc3C)cc2)C(C)C)on1`, the Activity in experiment [1] was 81%; in experiment [2], 20%.
Regarding `Cc1cc([C@H](C(=O)N2C[C@H](O)C[C@H]2C(=O)N[C@@H](CC(=O)N2CCC(N3CCC(C#Cc4ccc(C(=O)N[C@H]5C(C)(C)[C@H](Oc6ccc(C#N)c(Cl)c6)C5(C)C)cc4)CC3)CC2)c2ccc(-c3scnc3C)cc2)C(C)C)on1`, the Activity stood at 98% in experiment [1] and 76% in experiment [2].
On to `Cc1ncsc1-c1ccc([C@H](CC(=O)N2CCC(N3CCC(C#Cc4ccc(C(=O)N[C@H]5C(C)(C)[C@H](Oc6ccc(C#N)c(Cl)c6)C5(C)C)cc4)CC3)CC2)NC(=O)[C@@H]2C[C@@H](O)CN2C(=O)[C@@H](NC(=O)C2(C#N)CC2)C(C)(C)C)cc1`, for which the results for the Activity in experiment [1] and in experiment [2] were 99% and 76%, respectively.
The matching figures for `Cc1ncsc1-c1ccc([C@H](CC(=O)N2CCC(N3CCC(C#Cc4ccc(C(=O)N[C@H]5C(C)(C)[C@H](Oc6ccc(C#N)c(Cl)c6)C5(C)C)cc4)CC3)CC2)NC(=O)[C@@H]2C[C@@H](O)CN2C(=O)[C@@H](NC(=O)C2(F)CC2)C(C)(C)C)cc1`: 99% and 89%.
